Test results taken from PMC11606603, “The membrane domains of mammalian adenylyl cyclases are lipid receptors” (eLife, 2024).
“And” between values parts separate entries of the source, which are not always exact repeats. Equal entries are not always repeated. Where two headings read alike, the source gives them in different places.

Assays:
mAC1 = target: T1, mAC1 (Homo sapiens, UniProt Q08828); assay: AC assay, Gsα-stimulated mAC1 in membranes from transfected HEK293 cells; type: biochemical; conditions: for Effect of lipid on 300 nM Gsα-stimulated mAC1: 20 µM, in words; for activity [%] (100% = 300nM Gsα stimulation): mAC1
T1 construct: Human mAC genes were from GenScript and fitted with a C-terminal FLAG-tag; FLAG (C); made in house; host or cells: HEK293, permanently transfected; membrane preparation
Method in brief: (§1)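 cAMP formation was quantified by HTRF against a cAMP standard curve, with EC50 or IC50 derived by curve fitting. Reactions contained 1 mM ATP, 2 mM MgCl2, 3 mM creatine phosphate, 60 μg/ml creatine kinase and 50 mM MOPS pH 7.5, using membranes of stably transfected HEK293 cells carrying FLAG-tagged human AC.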

mAC2 = target: T2, mAC2 (Homo sapiens, UniProt Q08462); assay: AC assay, Gsα-stimulated mAC2 in membranes from transfected HEK293 cells; type: biochemical; conditions: for mAC2 activity [%] (100% = 300nM Gsα stimulation); 20µM fatty acid concentration: Figure 5-figure supplement 1 left; for mAC2 activity [%] (100% = 300nM Gsα stimulation): Figure 5 B
T2 construct: Human mAC genes were from GenScript and fitted with a C-terminal FLAG-tag; FLAG (C); made in house; host or cells: HEK293, permanently transfected; membrane preparation
Method in brief: as §1

[1] = target: T3, HEK293 cells permanently transfected with mAC3 (Homo sapiens, UniProt O60266); assay: cAMP accumulation assay, isoproterenol-stimulated HEK-mAC3 cells; type: cell-based; conditions: for Effect on isoproterenol-stimulated cAMP formation in HEK-mAC3: in words
T3 construct: Human mAC genes were from GenScript and fitted with a C-terminal FLAG-tag; FLAG (C); expressed in transfected cells; host or cells: HEK293, permanently transfected
T3 sequence (O60266 1-1144): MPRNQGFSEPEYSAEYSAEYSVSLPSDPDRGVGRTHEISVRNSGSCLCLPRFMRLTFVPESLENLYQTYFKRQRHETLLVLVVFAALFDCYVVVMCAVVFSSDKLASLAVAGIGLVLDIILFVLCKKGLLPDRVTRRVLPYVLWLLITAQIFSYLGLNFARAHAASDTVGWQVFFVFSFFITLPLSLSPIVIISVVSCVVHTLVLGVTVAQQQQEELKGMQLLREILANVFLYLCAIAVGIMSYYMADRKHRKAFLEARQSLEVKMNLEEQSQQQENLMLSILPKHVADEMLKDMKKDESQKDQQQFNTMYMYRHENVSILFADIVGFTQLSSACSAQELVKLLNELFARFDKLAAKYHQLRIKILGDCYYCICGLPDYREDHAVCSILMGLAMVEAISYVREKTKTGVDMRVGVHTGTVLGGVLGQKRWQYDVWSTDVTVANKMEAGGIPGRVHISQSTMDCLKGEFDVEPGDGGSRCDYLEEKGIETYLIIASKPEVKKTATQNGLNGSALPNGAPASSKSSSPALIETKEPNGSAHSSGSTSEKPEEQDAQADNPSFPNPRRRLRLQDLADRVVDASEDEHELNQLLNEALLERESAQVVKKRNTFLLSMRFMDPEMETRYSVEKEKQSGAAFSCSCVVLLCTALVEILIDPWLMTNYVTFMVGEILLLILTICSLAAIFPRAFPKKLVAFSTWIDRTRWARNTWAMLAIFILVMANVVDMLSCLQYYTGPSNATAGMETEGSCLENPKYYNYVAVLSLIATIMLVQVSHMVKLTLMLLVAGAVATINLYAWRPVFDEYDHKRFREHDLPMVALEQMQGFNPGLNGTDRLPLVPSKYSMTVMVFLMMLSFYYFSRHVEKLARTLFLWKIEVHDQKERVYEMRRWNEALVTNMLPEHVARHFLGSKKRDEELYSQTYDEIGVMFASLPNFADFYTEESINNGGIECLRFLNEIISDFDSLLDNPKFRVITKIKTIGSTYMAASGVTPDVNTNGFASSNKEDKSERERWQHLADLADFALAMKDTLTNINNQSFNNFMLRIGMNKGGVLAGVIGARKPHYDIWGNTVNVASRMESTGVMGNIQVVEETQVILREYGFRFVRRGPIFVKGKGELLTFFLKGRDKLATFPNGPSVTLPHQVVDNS
Experimental: hAC sequences were from NCBI were: ADCY1: NM_021116.3; ADCY2: NM_020546.2; ADCY3: NM_004036.4; ADCY4: NM_001198568.2; ADCY5: NM_183357.2; ADCY6: NM_015270.4; ADCY7: NM_001114.4; ADCY8: NM_001115.2; ADCY9: NM_001116.3. Human mAC genes were from GenScript and fitted with a C-terminal FLAG-tag. […] The gene was synthesized by GenScript. HEK293 cells were maintained in Dulbeccos Modified Eagle Medium (DMEM) with 10% fetal bovine serum at 37°C and 5% CO2. Transfection with AC plasmids was with PolyJet (SignaGen, Frederick, MD, USA). Permanent cell lines were generated by selection for 7 days with 600 µg/ml G418 and maintained with 300 µg/ml For membrane preparation, cells were tyrpsinized, collected by centrifugation (3000 × g, 5 min) and lysed and homogenized in 20 mM HEPES, pH 7.5, 1 mM Ethylenediaminetetraacetic acid (EDTA), 2 mM MgCl2, 1 mM Dithiothreitol (DTT), one tablet of cOmplete, EDTA-free (per 50 ml) and 250 mM sucrose by 20 strokes in a potter homogenizer on ice. Debris was removed (5 min at 1000 × g, 0°C), membranes were collected at 100,000 × g, 60 min at 0°C, suspended and stored at −80°C in 20 mM MOPS, pH 7.5, 0.5 mM EDTA, 2 mM MgCl2. […] Three cerebral cortices were dissected and homogenized in 4.5 ml cold 48 mM Tris–HCl, pH 7.4, 12 mM MgC1_2, and 0.1 mM Ethylene glycol-bis(β-aminoethyl ether)-N,N,N′,N′-tetraacetic acid (EGTA) with a Polytron hand disperser (Kinematica AG, Switzerland). […] The pellet was washed once with 5 ml 1 mM KHCO3. The final suspension in 2 ml 1 mM KHCO3 was stored in aliquots at −80°C.
HEK293 cells stably expressing mAC isoforms 3, 5, and mAC5(membr)_mAC3(cat) were plated at 2500–10,000 cells/well into 384-well plates. […] Addition of Cisbio HTRF detection reagents stopped the reaction and cAMP levels were determined.

T1 sequence (Q08828 whole entry): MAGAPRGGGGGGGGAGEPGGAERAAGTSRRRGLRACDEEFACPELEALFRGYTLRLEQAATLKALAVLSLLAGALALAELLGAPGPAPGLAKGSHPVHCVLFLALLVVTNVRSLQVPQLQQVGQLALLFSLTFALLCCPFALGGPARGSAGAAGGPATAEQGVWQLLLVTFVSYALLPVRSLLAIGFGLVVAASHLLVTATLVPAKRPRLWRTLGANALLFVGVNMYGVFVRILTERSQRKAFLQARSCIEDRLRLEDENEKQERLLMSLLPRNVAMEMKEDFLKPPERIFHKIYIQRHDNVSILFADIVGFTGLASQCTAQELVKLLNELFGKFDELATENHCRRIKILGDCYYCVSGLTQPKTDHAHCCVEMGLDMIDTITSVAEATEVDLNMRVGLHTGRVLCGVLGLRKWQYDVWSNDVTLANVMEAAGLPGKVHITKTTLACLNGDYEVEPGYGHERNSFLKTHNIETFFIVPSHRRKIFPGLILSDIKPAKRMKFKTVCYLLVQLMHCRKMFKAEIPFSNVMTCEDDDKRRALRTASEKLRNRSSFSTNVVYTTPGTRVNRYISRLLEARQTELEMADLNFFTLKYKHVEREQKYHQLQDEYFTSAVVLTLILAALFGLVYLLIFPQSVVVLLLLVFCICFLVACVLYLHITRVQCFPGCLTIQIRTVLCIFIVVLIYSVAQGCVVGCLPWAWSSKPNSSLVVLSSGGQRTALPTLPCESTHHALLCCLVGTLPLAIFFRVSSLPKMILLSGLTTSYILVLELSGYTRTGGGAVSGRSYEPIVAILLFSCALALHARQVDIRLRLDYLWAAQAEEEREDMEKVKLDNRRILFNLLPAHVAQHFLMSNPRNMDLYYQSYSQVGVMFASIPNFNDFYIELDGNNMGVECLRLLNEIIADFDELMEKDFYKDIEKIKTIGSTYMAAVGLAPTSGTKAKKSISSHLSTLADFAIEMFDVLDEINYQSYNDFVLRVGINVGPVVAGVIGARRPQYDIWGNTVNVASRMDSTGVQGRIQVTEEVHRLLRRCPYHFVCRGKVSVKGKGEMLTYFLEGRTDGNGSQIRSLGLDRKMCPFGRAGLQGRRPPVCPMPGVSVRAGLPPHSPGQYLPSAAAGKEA
T2 sequence (Q08462 whole entry): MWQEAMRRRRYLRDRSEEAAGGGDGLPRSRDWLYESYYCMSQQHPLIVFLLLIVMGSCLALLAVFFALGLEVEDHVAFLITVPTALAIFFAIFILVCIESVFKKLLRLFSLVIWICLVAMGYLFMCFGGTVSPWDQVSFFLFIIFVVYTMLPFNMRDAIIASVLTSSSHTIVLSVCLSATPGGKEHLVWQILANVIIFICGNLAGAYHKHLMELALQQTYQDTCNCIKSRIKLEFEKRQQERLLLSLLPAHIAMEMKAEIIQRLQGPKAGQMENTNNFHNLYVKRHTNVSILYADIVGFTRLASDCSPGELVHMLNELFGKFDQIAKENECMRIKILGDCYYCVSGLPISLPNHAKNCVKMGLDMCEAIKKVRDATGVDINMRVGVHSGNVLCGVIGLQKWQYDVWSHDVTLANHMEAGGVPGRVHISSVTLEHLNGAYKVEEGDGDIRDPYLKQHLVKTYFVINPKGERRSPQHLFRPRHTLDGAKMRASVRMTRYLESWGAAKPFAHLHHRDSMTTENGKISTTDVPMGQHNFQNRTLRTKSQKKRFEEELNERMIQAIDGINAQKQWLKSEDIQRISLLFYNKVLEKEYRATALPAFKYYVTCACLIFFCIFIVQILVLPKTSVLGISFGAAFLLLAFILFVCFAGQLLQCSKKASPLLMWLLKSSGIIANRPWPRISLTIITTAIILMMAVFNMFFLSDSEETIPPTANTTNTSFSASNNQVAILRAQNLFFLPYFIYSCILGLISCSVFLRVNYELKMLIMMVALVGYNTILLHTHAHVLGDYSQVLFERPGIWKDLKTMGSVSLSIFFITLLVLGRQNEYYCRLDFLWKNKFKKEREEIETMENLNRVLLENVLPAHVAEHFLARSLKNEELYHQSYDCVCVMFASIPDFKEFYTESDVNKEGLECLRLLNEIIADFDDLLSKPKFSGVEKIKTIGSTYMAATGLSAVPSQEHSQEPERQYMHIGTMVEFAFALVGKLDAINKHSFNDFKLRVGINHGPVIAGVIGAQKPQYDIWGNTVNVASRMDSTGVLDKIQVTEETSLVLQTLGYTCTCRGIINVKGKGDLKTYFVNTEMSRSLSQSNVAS
T2 sequence (P63092 2-394 Q227L partner): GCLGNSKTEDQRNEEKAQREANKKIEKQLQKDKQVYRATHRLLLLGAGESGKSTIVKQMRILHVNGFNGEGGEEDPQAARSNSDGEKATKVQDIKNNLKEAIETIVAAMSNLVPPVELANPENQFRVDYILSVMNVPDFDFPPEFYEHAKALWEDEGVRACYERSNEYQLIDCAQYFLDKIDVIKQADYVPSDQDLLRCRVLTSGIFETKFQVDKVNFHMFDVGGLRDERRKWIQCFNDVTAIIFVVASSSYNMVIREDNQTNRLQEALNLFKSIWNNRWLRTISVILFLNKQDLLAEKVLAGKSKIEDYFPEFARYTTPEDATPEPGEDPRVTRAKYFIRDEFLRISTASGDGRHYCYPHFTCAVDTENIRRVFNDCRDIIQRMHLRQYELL

CCCCC/C=C\C/C=C\C/C=C\C/C=C\CCCC(=O)O [Arachidonic acid, Arachidonic ((5Z,8Z,11Z,14Z)-eicosatetraenoic) acid]
Effect of lipid on 300 nM Gsα-stimulated mAC1 (mAC1): significantly attenuated
IC50 (mAC1; attenuation of 300 nM Gsα-stimulated activity, read-out: IC50 for mAC1): 23 µM
activity [%] (100% = 300nM Gsα stimulation) (mAC1; 6 µM, 300 nM Gsα, single experiments): 84% and 119% and 80% and 96% and 100% and 86% and 114% and 97%
activity [%] (100% = 300nM Gsα stimulation) (mAC1; 30 µM, 300 nM Gsα, single experiments): 58% and 69% and 46%
activity [%] (100% = 300nM Gsα stimulation) (mAC1; 60 µM, 300 nM Gsα, single experiments): 12% and 11%
activity [%] (100% = 300nM Gsα stimulation) (mAC1; 100 µM, 300 nM Gsα, single experiments): 12% and 2% and 3%
mAC2 activity [%] (100% = 300nM Gsα stimulation); 20µM fatty acid concentration (mAC2; 20 µM): 133% and 137% and 152% and 99% and 147%

CCCCCCCC/C=C\CCCCCCCC(=O)O [Oleic acid, Oleic ((9Z)-octadecenoic) acid]
Effect of lipid on 300 nM Gsα-stimulated mAC1 (mAC1): slightly attenuated
Effect of lipid on 300 nM Gsα-stimulated mAC2 (mAC2; 20 µM, in words): significantly enhanced
mAC2 activity [%] (100% = 300nM Gsα stimulation); 20µM fatty acid concentration (mAC2; 20 µM): 252% and 212% and 173% and 181% and 196% and 228% and 168%
mAC2 activity [%] (100% = 300nM Gsα stimulation) (mAC2; oleic acid 0.3 µM): 100%
mAC2 activity [%] (100% = 300nM Gsα stimulation) (mAC2; oleic acid 1 µM): 98% and 100% and 117% and 87%
mAC2 activity [%] (100% = 300nM Gsα stimulation) (mAC2; oleic acid 3 µM): 82% and 99% and 116% and 107%
mAC2 activity [%] (100% = 300nM Gsα stimulation) (mAC2; oleic acid 6 µM): 120% and 95% and 119% and 162% and 110% and 87%
mAC2 activity [%] (100% = 300nM Gsα stimulation) (mAC2; oleic acid 10 µM): 157% and 167% and 142% and 171% and 162% and 123%
mAC2 activity [%] (100% = 300nM Gsα stimulation) (mAC2; oleic acid 20 µM): 196% and 228% and 168% and 252% and 212% and 173% and 181%
EC50 (mAC2; enhancement of 300 nM Gsα-stimulated activity): 8.6 µM
EC50 ([1]; 2.5 µM isoproterenol): 0.5 µM
enhancement of cAMP formation in HEK-mAC3 ([1]; 2.5 µM isoproterenol): 1.5 fold
AC activity (%); 100%= 2.5µM Isoproterenol stimulation ([1]; HEK-mAC3, oleic acid 0.01 µM): 132%
AC activity (%); 100%= 2.5µM Isoproterenol stimulation ([1]; HEK-mAC3, oleic acid 0.03 µM): 145% and 87%
AC activity (%); 100%= 2.5µM Isoproterenol stimulation ([1]; HEK-mAC3, oleic acid 0.06 µM): 118% and 89%
AC activity (%); 100%= 2.5µM Isoproterenol stimulation ([1]; HEK-mAC3, oleic acid 0.1 µM): 122% and 118% and 127% and 150%
AC activity (%); 100%= 2.5µM Isoproterenol stimulation ([1]; HEK-mAC3, oleic acid 0.3 µM): 130% and 163%
AC activity (%); 100%= 2.5µM Isoproterenol stimulation ([1]; HEK-mAC3, oleic acid 0.5 µM): 140% and 92%
AC activity (%); 100%= 2.5µM Isoproterenol stimulation ([1]; HEK-mAC3, oleic acid 0.6 µM): 135% and 121% and 113% and 161%
AC activity (%); 100%= 2.5µM Isoproterenol stimulation ([1]; HEK-mAC3, oleic acid 3 µM): 190% and 191% and 198% and 119%
AC activity (%); 100%= 2.5µM Isoproterenol stimulation ([1]; HEK-mAC3, oleic acid 10 µM): 199% and 123% and 137% and 198% and 118% and 119%
AC activity (%); 100%= 2.5µM Isoproterenol stimulation ([1]; HEK-mAC3, oleic acid 50 µM): 187% and 186% and 134%

CCCCCCCCCCCCCCCCCC(=O)O [Stearic acid, Stearic (octadecanoic) acid]
mAC1 activity [%] (100% = 300nM Gsα stimulation); 20µM fatty acid concentration (mAC1; 20 µM fatty acid, 300 nM Gsα, single experiments): 126% and 77% and 95%
mAC2 activity [%] (100% = 300nM Gsα stimulation); 20µM fatty acid concentration (mAC2; 20 µM): 100% and 101% and 84% and 89%
Effect on isoproterenol-stimulated cAMP formation in HEK-mAC3 [1]: inactive

CCCCC/C=C\C/C=C\C/C=C\C/C=C\CCCC(=O)NCCO [Anandamide, arachidonoylethanolamide]
IC50 (mAC1): 29 µM
activity [%] (100% = 300nM Gsα stimulation) (mAC1; Anandamide 0.1 µM): 100%
activity [%] (100% = 300nM Gsα stimulation) (mAC1; Anandamide 1 µM): 81% and 83% and 116% and 100% and 88%
activity [%] (100% = 300nM Gsα stimulation) (mAC1; Anandamide 3 µM): 98% and 83% and 114% and 101% and 97%
activity [%] (100% = 300nM Gsα stimulation) (mAC1; Anandamide 10 µM): 92% and 80% and 101% and 94% and 81%
activity [%] (100% = 300nM Gsα stimulation) (mAC1; Anandamide 30 µM): 41% and 63% and 74% and 78% and 71%
activity [%] (100% = 300nM Gsα stimulation) (mAC1; Anandamide 60 µM): 39% and 40% and 53% and 59% and 57%
Effect on isoproterenol-stimulated cAMP formation in HEK-mAC3 [1]: no effect
